Data reported in patent US20180258459A1, “NITRATE BIOSENSOR” (priority 2015, published 2018).

System: NarL associated promoter
Assay: transfer of natural NarL with its associated promoter into B. subtilis
Type: cell-based
Conditions: natural NarL protein with its associated promoter, previous attempts

In the case of “NarL: response regulator (RR) protein NarL from E. coli (UniProt P0AF28)”, the “functional transcription in B. subtilis” value is reported as “failed to result in functional transcription”.
